Test results from US10004751B2, “Compositions and methods for treating Dengue virus infection” (The J. David Gladstone Institutes, priority 2014, dated 2018).

Tested on: DENV
Test: DENV replication in Huh7 cells treated with ARFGAP1 inhibitor
Assay type: cell-based, Dengue virus
Details: DENV MOI of 0.5, increasing concentrations, 24 hours post-infection
Procedure: Human hepatoma Huh7 cells were infected with DENV (MOI of 0.5) and treated with increasing concentrations of QS 11. Viral RNA synthesis, DENV capsid protein levels, and infectious virion production were measured at 24 hours post-infection.

OC[C@H](Cc1ccccc1)Nc1nc(Oc2ccc3c(c2)CCC3)nc2c1ncn2Cc1ccc(-c2ccccc2)cc1 [QS 11]
Viral RNA synthesis (FIG. 6A): reduced viral RNA synthesis
DENV capsid protein levels (FIG. 6B): reduced
Infectious virion production (FIG. 6C): reduced
